Measured values taken from ChEMBL document CHEMBL1201862, “PubChem BioAssay data set” (2004).
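Assay format: 96-well plates, 48-hour exposure. Abbreviation: GI50, concentration required for 50% inhibition of growth.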 Active and inactive are the calls of the source. Cut-off read from the data, not from the text of the source: active = GI50 up to about 1.1 µM and inactive = higher.

Assays:
Assay in all cases: NCI-60 cell line screen, 48 h
[1] = system: OVCAR-5
[2] = system: NCI-H226
[3] = system: LOX IMVI
[4] = system: HCT-116
[5] = system: BT-549
[6] = system: SNB-75
[7] = system: CCRF-CEM
[8] = system: CAKI-1
[9] = system: M14
[10] = system: NCI/ADR-RES
[11] = system: OVCAR-8
[12] = system: HOP-92
[13] = system: OVCAR-4
[14] = system: MCF7
[15] = system: UACC-257
[16] = system: UO-31
[17] = system: SK-MEL-5
[18] = system: U-251
[19] = system: OVCAR-3
[20] = system: DMS-273

Measured: GI50

CC(C)CNCCc1ccccn1
inactive: [1] > 100 µM | [2] > 100 µM | [3] > 100 µM | [4] > 100 µM | [5] > 100 µM | [6] > 100 µM | [7] > 100 µM | [8] > 100 µM | [9] > 100 µM | [10] > 100 µM | [11] > 100 µM | [12] > 100 µM | [13] > 100 µM | [14] > 100 µM | [15] > 100 µM | [16] > 100 µM | [17] > 100 µM | [18] > 100 µM | [19] > 100 µM

COCOCc1cc(OCc2ccccc2)c(OC)cc1Br
inactive: [1] > 100 µM | [3] 52.8 µM | [4] > 100 µM | [6] > 100 µM | [7] > 100 µM | [8] 64.3 µM | [11] > 100 µM | [20] 64.6 µM | [12] > 100 µM | [13] > 100 µM | [15] > 100 µM | [17] 61.1 µM | [18] > 100 µM | [19] > 100 µM

O=c1[nH]c2c(c3ccccc13)CCc1ccccc1-2
inactive: [1] > 100 µM | [2] > 100 µM | [4] > 100 µM | [6] > 100 µM | [8] > 100 µM | [11] > 100 µM | [20] > 100 µM | [13] > 100 µM | [15] > 100 µM | [16] > 100 µM | [17] > 100 µM | [18] > 100 µM | [19] > 100 µM

O=C(NCC#CCO)C(F)(F)F
inactive: [1] > 100 µM | [2] > 100 µM | [3] > 100 µM | [4] > 100 µM | [8] > 100 µM | [9] > 100 µM | [11] > 100 µM | [20] > 100 µM | [13] > 100 µM | [15] > 100 µM | [16] > 100 µM | [17] > 100 µM | [18] > 100 µM

Cc1nc2c(N)ncnc2o1
inactive: [1] > 100 µM | [2] > 100 µM | [3] > 100 µM | [4] > 100 µM | [6] > 100 µM | [7] > 100 µM | [8] > 100 µM | [9] > 100 µM | [11] > 100 µM | [20] > 100 µM | [12] > 100 µM | [13] > 100 µM | [15] > 100 µM | [16] > 100 µM | [17] > 100 µM | [18] > 100 µM | [19] > 100 µM

COc1ccc2c(C(=O)O)cc3ccccc3c2c1OC
inactive: [1] 19.1 µM | [2] 24.4 µM | [3] 17.6 µM | [4] 18.6 µM | [6] 28.4 µM | [7] 24.8 µM | [9] 16.4 µM | [11] 22 µM | [20] 23.5 µM | [12] 21.9 µM | [15] 17.1 µM | [16] 17.2 µM | [18] 40.9 µM | [19] 16.6 µM

O=[N+]([O-])C(=C(c1ccccc1)c1ccccc1)[N+](=O)[O-]
inactive: [1] 19.9 µM | [2] 31.1 µM | [3] 2.96 µM | [4] 11.9 µM | [6] 10.2 µM | [7] 2.93 µM | [8] 21.1 µM | [9] 11.9 µM | [11] 9.86 µM | [20] 4.53 µM | [13] 14.5 µM | [15] 13.1 µM | [16] 22.1 µM | [18] 13.6 µM | [19] 20.7 µM

Cc1nc2c(n1CCC(C)C)C(=O)c1ccccc1C2=O
inactive: [2] 45.2 µM | [3] 14.7 µM | [4] 6.84 µM | [6] 20.1 µM | [7] 13.6 µM | [9] 20.1 µM | [11] 27.9 µM | [20] 11 µM | [13] 36.6 µM | [15] 27.7 µM | [16] 24.8 µM | [17] 14.6 µM | [18] 12.7 µM | [19] 23.5 µM

CN/N=C(\C)CC(=O)Nc1cccc(Cl)c1C
inactive: [1] > 100 µM | [2] > 100 µM | [3] > 100 µM | [4] > 100 µM | [6] > 100 µM | [7] 96.6 µM | [8] > 100 µM | [9] > 100 µM | [11] > 100 µM | [20] 53.7 µM | [12] > 100 µM | [13] > 100 µM | [15] > 100 µM | [16] > 100 µM | [17] > 100 µM | [18] > 100 µM | [19] > 100 µM

CCCNc1[nH]c(C(=O)c2ccccc2)c(N)c1C(=S)Nc1ccccc1
inactive: [1] > 100 µM | [2] > 100 µM | [3] > 100 µM | [4] > 100 µM | [5] > 100 µM | [6] > 100 µM | [7] > 100 µM | [8] > 100 µM | [9] > 100 µM | [10] > 100 µM | [11] > 100 µM | [12] > 100 µM | [13] > 100 µM | [14] > 100 µM | [15] > 100 µM | [16] > 100 µM | [17] > 100 µM | [18] > 100 µM | [19] > 100 µM

C=CCN1CCC23c4c5ccc(O)c4OC2C(=NN=C2CCC4(O)C6Cc7ccc(O)c8c7C4(CCN6CC=C)C2O8)CCC3(O)C1C5 (stereo not drawn)
inactive: [1] 66.5 µM | [2] > 100 µM | [3] 20 µM | [6] 17.1 µM | [7] 34.8 µM | [8] 44.5 µM | [9] 17.8 µM | [11] 25.6 µM | [20] 19.1 µM | [12] 17.6 µM | [13] 22 µM | [15] 23.9 µM | [16] > 100 µM | [17] 20.4 µM | [18] 18.9 µM | [19] 18.5 µM

CCCCN(CCCC)CCCn1cnc2ncccc2c1=O
inactive: [1] > 100 µM | [2] > 100 µM | [3] > 100 µM | [4] > 100 µM | [6] > 100 µM | [7] > 100 µM | [8] > 100 µM | [9] > 100 µM | [11] > 100 µM | [20] > 100 µM | [12] > 100 µM | [13] > 100 µM | [16] > 100 µM | [17] 72.6 µM | [18] > 100 µM | [19] > 100 µM

O=C1C(Br)=CC2(C=C1Br)CCNC1=C2C(=O)c2[nH]cnc2C1=O
inactive: [1] 15.9 µM | [2] 20.4 µM | [3] 13.5 µM | [4] 14.7 µM | [5] 19.2 µM | [6] 15.6 µM | [7] 15 µM | [8] 24.5 µM | [9] 16.9 µM | [10] 21.1 µM | [11] 16.8 µM | [12] 12.3 µM | [13] 14.5 µM | [14] 14.6 µM | [15] 14.6 µM | [16] 15.9 µM | [17] 11.2 µM | [18] 15 µM | [19] 15.7 µM

Cc1ccc(S(N)(C(=O)Nc2cccc3ccccc23)[N+](=O)[O-])cc1 (stereo not drawn)
inactive: [1] > 100 µM | [2] > 100 µM | [3] > 100 µM | [4] 66.7 µM | [5] > 100 µM | [6] > 100 µM | [7] 42.3 µM | [8] > 100 µM | [9] > 100 µM | [10] > 100 µM | [11] > 100 µM | [12] > 100 µM | [13] > 100 µM | [14] 59.2 µM | [15] > 100 µM | [16] 35.7 µM | [17] 93.3 µM | [18] > 100 µM | [19] 61.8 µM

CSc1ccc2c(cc1=O)C(NC(=O)c1ccc(OC(C)=O)cc1)CCc1cc(O)c(O)c(O)c1-2 (stereo not drawn)
inactive: [1] 25.1 µM | [2] 20.9 µM | [4] 17.3 µM | [6] 20 µM | [7] 3.43 µM | [9] 16.7 µM | [11] 25.1 µM | [20] 22.5 µM | [13] 9.02 µM | [15] 19.5 µM | [16] 35.6 µM | [17] 16 µM | [18] 20.4 µM | [19] 20.8 µM

CCCN(CCC)c1c([N+](=O)[O-])cc(C(N)=O)cc1[N+](=O)[O-]
inactive: [1] > 100 µM | [2] > 100 µM | [4] > 100 µM | [6] > 100 µM | [7] 39.1 µM | [8] 37.2 µM | [9] > 100 µM | [11] 92.9 µM | [20] 58.9 µM | [13] > 100 µM | [15] 49.4 µM | [16] 65.5 µM | [17] 1.16 µM | [18] 69 µM | [19] 78 µM

CC12CCC(=O)N1c1ccc([N+](=O)[O-])cc1N2 (stereo not drawn)
inactive: [2] 42.3 µM | [3] > 100 µM | [4] > 100 µM | [6] > 100 µM | [7] > 100 µM | [9] > 100 µM | [11] > 100 µM | [20] > 100 µM | [13] > 100 µM | [15] > 100 µM | [16] > 100 µM | [17] > 100 µM | [18] > 100 µM | [19] > 100 µM
